Laboratory results taken from patent US12213960B2, “Method of preventing or improving UV-induced skin damage using hydroangenol as active ingredient” (COSMAXBIO CO., LTD., priority 2017, dated 2025).

Experiments:
Type in all cases: cell-based, human
[1] = system: hyaluronic acid secretion in epidermal HaCaT keratinocytes; test: Analysis of hyaluronic acid content (ELISA), epidermal cells
Protocol: (§1) Samples obtained in Examples 1 and 2 were measured in regards to the effect of increasing hyaluronic acid in epidermal HaCaT keratinocytes and dermal Hs68 fibroblasts. In order to evaluate the effect of each sample in increasing hyaluronic acid, the cells were seeded into a 24-well microplate at a density of 1.0×10^5 cells/well and stabilized for 24 hours. Next, the culture medium was exchanged to a new one supplemented with the sample, and the cells were incubated for 24 hours. For UV-B irradiation, the culture medium was removed, washed with PBS, and exposed to UV-B radiation at 15 mJ/cm^2. After an incubation of 24 hours in a culture medium supplemented with the sample, the resultant supernatant was measured in regards to the degree of secretion of hyaluronic acid by using a TECOR Hyaluronic Acid PLUS ELISA kit (TE 1018-2, TECO Medical Group, US).

[2] = system: MMP-1 secretion in epidermal HaCat keratinocytes; test: Quantitative analysis of MMP-1 secretion (ELISA), epidermal cells; details: epidermal cells damaged by UV-B radiation of 15 mJ/cm2
Protocol: (§2) Samples obtained in Examples 1 and 2 were measured in regards to the inhibitory effect against the secretion of MMP-1 in epidermal HaCat keratinocytes and dermal Hs68 fibroblasts. In order to evaluate the effect of each sample in reducing MMP-1, the cells were seeded into a 24-well microplate at a density of 1.0×10^5 cells/well and stabilized for 24 hours. Next, the culture medium was exchanged to a new one supplemented with the sample, and the cells were incubated for 24 hours. For UV-B irradiation, the culture medium was removed, washed with PBS, and exposed to UV-B radiation at 15 mJ/cm^2. After an incubation of 48 hours in a culture medium supplemented with the sample, the resultant supernatant was measured in regards to the degree of secretion of MMP-1 by using an MMP-1 Human ELISA kit (ab100603, abcam, US).

HS68 fibroblasts = test: MTT assay of cell viability/proliferation after UV-B damage, dermal cells
Protocol: (§3) Samples obtained in Examples 1 and 2 were measured in regards to the effect in recovering the skin damaged from UV-B exposure. In this experiment, HaCaT keratinocytes and HS68 fibroblasts were used as epidermal and dermal cells, respectively. In order to evaluate the possible efficacy of each sample in preventing or improving the UV-induced damage of skin cells, the cells were seeded into a 96-well microplate at a density of 1.0×10^4 cells/well and stabilized for 24 hours. Next, the culture medium was exchanged to a new one supplemented with the sample, and the cells were incubated for 24 hours. For UV-B irradiation, the culture medium was removed, washed with PBS, and exposed to UV-B radiation at 15 mJ/cm^2. After an incubation of 24 hours in a culture medium supplemented with the sample, the cells were subjected to an MTT assay to measure cell viability. The MTT assay measures the reduction of a tetrazolium component (MTT) into a formazan product by the mitochondria of viable cells. More specifically, 50 μl of a 5 mg/ml MTT solution was added to the cells, and after an incubation of 4 hours, the culture solution was completely removed and cells were dissolved in DMSO. The absorbance of the DMSO solution in the microplate was quantified by spectrophotometry at 540 nm.

HaCaT keratinocytes = test: MTT assay of cell viability/proliferation after UV-B damage, epidermal cells
Protocol: as §3

[3] = system: procollagen type 1 secretion in dermal Hs68 fibroblasts; test: Analysis of procollagen type-1 content (PIP EIA)
Protocol: Samples obtained in Examples 1 or 2 were measured in regards to the effect of increasing procollagen type 1 in dermal Hs68 fibroblasts. In order to evaluate the effect of each sample in increasing secretion of procollagen type 1, the cells were seeded into a 24-well microplate at a density of 1.0×10^5 cells/well and stabilized for 24 hours. Next, the culture medium was exchanged to a new one supplemented with the sample, and the cells were incubated for 24 hours. For UV-B irradiation, the culture medium was removed, washed with PBS, and exposed to UV-B radiation at 15 mJ/cm^2. After an incubation of 48 hours in a culture medium supplemented with the sample, the resultant supernatant was measured in regards to the degree of secretion of procollagen type 1 by using a Procollagen type 1 C-peptide (PIP) EIA kit (Mk101, Takara, Japan).

[4] = system: hyaluronic acid secretion in dermal Hs68 fibroblasts; test: Analysis of hyaluronic acid content (ELISA), dermal cells
Protocol: as §1

[5] = system: MMP-1 secretion in dermal Hs68 fibroblasts; test: Quantitative analysis of MMP-1 secretion (ELISA), dermal cells
Protocol: as §2

[6] = 1 μM hydrangenol, epidermal cells, UV-B 15 mJ/cm2
[7] = epidermal cells damaged by UV-B radiation of 15 mJ/cm2
[8] = 1 μM hydrangenol, dermal cells, UV-B 15 mJ/cm2
[9] = dermal cells damaged by UV-B radiation of 15 mJ/cm2

O=C1OC(c2ccc(O)cc2)Cc2cccc(O)c21 (stereo not drawn) [hydrangenol, 8-hydroxy-3-(4-hydroxyphenyl)-3,4-dihydroisochromen-1-one]
effect in producing hyaluronic acid [1, 6]: excellent effect in producing hyaluronic acid
production of hyaluronic acid [1, 7]: increased the production of hyaluronic acid
production of MMP-1 [2]: inhibited the production of MMP-1 in a concentration-dependent manner
cell proliferation effect compared with 10 μM EGCG (HS68 fibroblasts; [8]): equivalent to 10 μM EGCG
cell proliferation (HS68 fibroblasts; [9]): effective in promoting cell proliferation
cytotoxicity (HS68 fibroblasts; [9]): non-cytotoxic
cell proliferation effect compared with 10 μM EGCG (HaCaT keratinocytes; [6]): equivalent to 10 μM EGCG
cell proliferation (HaCaT keratinocytes; [7]): effective in promoting cell proliferation
cytotoxicity (HaCaT keratinocytes; [7]): non-cytotoxic
procollagen production effect compared with 10 μM EGCG [3, 8]: equivalent to 10 μM EGCG
production of procollagen [3, 9]: increased the production of procollagen
effect in producing hyaluronic acid [4, 8]: excellent effect in producing hyaluronic acid
production of hyaluronic acid [4, 9]: increased the production of hyaluronic acid
production of MMP-1 [5, 9]: inhibited the production of MMP-1 in a concentration-dependent manner
inhibitory effect against the production of MMP-1 compared with EGCG ([5]; dermal cells, same concentration as EGCG): far superior to the EGCG
